Read-outs that look alike come from different tables or passages of the source.
Legend:
[1] = Pharmacokinetic study in rats; assay type: in vivo, SD rats; details: for F: 5 mg/kg p.o versus 1 mg/kg i.v; for AUC(0-t) / Cmax / clearance / half-life: male, SD, rat, plasma
Description: SD rats: male, 180-350 g, purchased from Zhejiang Vital River Laboratory Animal Technology Co., Ltd.
Reagents: dimethyl sulfoxide (DMSO), polyethylene glycol 400 (PEG-400), normal saline, acetonitrile, formic acid, propranolol (internal standard) are all commercially available.
Instrument: Thermo Fisher Scientific LC-MS (Ultimate 3000 UPLC, TSQ QUANTUMN ULTRA triple quadrupole mass spectrometer).
The compound was weighed and dissolved in a DMSO-PEG-400 normal saline (5:60:35, v/v/v) system. After intravenous administration or intragastric administration to rats, 200 μL of venous blood was collected in an EDTA-K2 anticoagulation tube at 15 minutes, 30 minutes, 1 hour, 2 hours, 5 hours, 7 hours, and 24 hours (additional 5 minutes for an IV group) and centrifuged at 12000 rpm for 2 minutes. Plasma was taken and frozen and preserved at −80° C. for testing. A certain amount of samples for test was precisely weighed and dissolved in DMSO to 2 mg/mL as a stock solution. An appropriate amount of compound stock solution was accurately sucked, and diluted by adding acetonitrile to prepare a standard series solution. 4 μL of each of the above standard series solution was accurately sucked, and added to 36 µL of blank plasma, vortex mixing was performed to prepare plasma samples equivalent to plasma concentrations of 1 ng/mL, 3 ng/mL, 5 ng/mL, 10 ng/mL, 30 ng/mL, 100 ng/mL, 300 ng/mL, 1000 ng/mL, and 3000 ng/mL. Dual sample analysis was performed for each concentration to establish a standard curve. 30 μL of plasma (5-fold dilution of plasma of intravenous administration for 5 minutes, 15 minutes, and 30 minutes) was taken, a propranolol acetonitrile solution (internal standard, 50 ng/mL) was added to precipitate the protein, after 100 μL water was added for even vortex mixing, centrifugation was performed at 4000 rpm for 5 minutes, and supernatants were taken for LC-MS/MS analysis. LC-MS detection conditions were as follows: • chromatographic column: YMC-Triart C18 50×3.0 mmI.D. S-3 μm, 12 nm
A mobile phase A: water (0.1% formic acid), a mobile phase B: acetonitrile, a flow rate: 0.5 mL/min, gradient elution: […]
After LC-MS detection of blood drug concentration, WinNonlin 6.1 software was used to calculate pharmacokinetic parameters using non compartmental model method.

CYP1A2 = test: Enzyme induction test, CYP1A2 mRNA level in human primary hepatocytes; assay type: in vitro ADME; details: CYP1A2, 10 μM, 3 days
Description: (§1) Material: Williams' Medium E (without phenol red) was purchased from Sigma Aldrich Trading Co., Ltd; Williams+ Medium E, Recombinant human insulin, GlutaMAX, and HEPES were purchased from Life Technologies; Isotonic Percoll was purchased from General Electric; Fetal bovine serum was purchased from Corning; Dexamethasone was commercially available; CellTiter-Fluor™ Cell Viability Assay kit was purchased from Promega; Taqman Gene Expression Assay probe (20×, CYP1A2, FAM labeled), Taqman Gene Expression Assay probe (20×, CYP2B6, FAM labeled), Taqman Gene Expression Assay probe (20×, CYP3A4, FAM labeled), and Taqman Gene Expression Assay probe (20×, ACTB, VIC labeled) were purchased from AB (Applied Biosystems); and human primary hepatocytes were purchased from BioIVT.
(§2) The test compound, a positive inducer, a negative inducer, and internal standard were accurately weighed to prepare a stock solution with the corresponding concentration. A cell thawing solution and incubation buffer were prepared, and related reagents and consumables of mRNA extraction, reverse transcription, and fluorescence quantitative PCR were prepared.
(§3) The frozen human primary hepatocytes were thawed and inoculated onto a suitable cell culture plate at a certain density for monolayer cell culture to meet cell growth requirements. […]

CYP3A4 = test: Enzyme induction test, CYP3A4 mRNA level in human primary hepatocytes; assay type: in vitro ADME; details: CYP3A4, 10 μM, 3 days
Description: as §1, §2, §3

[2] = target: T1, human myeloperoxidase (hMPO) (Homo sapiens, UniProt P05164); test: Inhibition of human myeloperoxidase (hMPO) peroxidation cycle in vitro; assay type: biochemical; details: 3'-(p-aminophenyl) fluorescein and H2O2 at Km
T1 construct: purchased PLANTANATURAL 700-03-001
Description: 50 μL of 2×substrate (composed of 3′-(p-aminophenyl) fluorescein and H2O2, with 3′-(p-aminophenyl) fluorescein and H2O2 both at Km concentration, purchased from Invitrogen, A36003) to a black opaque low-protein-adsorption 96-well plate (purchased from PerkinElmer, 6005270), and 45 μL of 2×compound at different concentrations (DMSO final concentration of 1%) was added. After thorough blowing and uniform mixing of a mixture, […] of […] human myeloperoxidase (purchased from PLANTANATURAL, 700-03-001) was added and mixed uniformly, and an enzyme-linked immunosorbent assay reader was immediately used at a wavelength of Ex/Em:488/520 nm to read fluorescence values for 0-30 minutes (read every 20 seconds) using a dynamic mode. Different concentrations of compound inhibitors were calculated: inhibition rate (%)=[1−(Slopecontrol−Slopecpd)/SlopeControl−SlopeBlank)]*100, where SlopeBlank is a slope of a control without the compound and an MPO well at 0-5 minutes ([…] reading/reaction time t); SlopeControl is a slope of the well without the compound (containing 1% DMSO) at 0-5 minutes (linear reaction stage); and Slopecpd is a slope of the compound at 0-5 minutes. Using a logarithmic value of the compound concentration as an abscissa and the inhibition rate as an ordinate, a 4-parameter nonlinear regression curve was fitted to calculate the IC50 value (Y=Bottom+(Top-Bottom)/(1+10^((Log IC50−X)*HillSlope)), where Hillslope represents the slope of the fitted curve, and IC50 represents the half inhibitory concentration. Test results were shown in Table 1.

CYP2B6 = test: Enzyme induction test, CYP2B6 mRNA level in human primary hepatocytes; assay type: in vitro ADME; details: CYP2B6, 10 μM, 3 days
Description: as §1, §2, §3

CYP3A = CYP3A (Homo sapiens, UniProt P08684); test: Enzyme inhibition test, CYP3A in human liver microsomes; assay type: in vitro ADME; details: 0.2 mg/mL human liver microsomes
Description: Material: midazolam and testosterone were purchased from Cerilliant and PANPHY; ketoconazole was purchased from MCE; and human liver microsomes were purchased from Corning.
The inhibitory potential of the compound on cytochrome P450 enzyme CYP3A was evaluated using a phosphate buffer saline (100 mM, pH 7.4) system containing 0.2 mg/mL human liver microsomes. The test concentrations of the compound were 0.068 μM, 0.206 μM, 0.62 μM, 1.85 μM, 5.56 μM, 16.67 μM, and 50 μM. The positive substrates in the incubation system were 1 μM midazolam and 40 μM testosterone (CYP3A), respectively. The concentration of the positive inhibitor ketoconazole (CYP3A) in the incubation system was 0.05 μM. Incubation was carried out at 37° C., and an NADPH solution with a final concentration of 1 mM was added to initiate a reaction. The incubation time was 10 minutes. After incubation, all samples were added to 300 μL of acetonitrile solution containing 3% formic acid and internal standard (0.5 μM tolbutamide) to precipitate the protein, and the metabolic product generation of the labeled substrate was detected by UPLC-MS/MS to calculate an IC50 value of compound inhibition.

[3] = pH 7.4, probe midazolam (1 μM), CYP3A (Midazolam)
[4] = pH 7.4, probe testosterone (40 μM), CYP3A (Testosterone)

T1 sequence (P05164 279-745 limits assumed): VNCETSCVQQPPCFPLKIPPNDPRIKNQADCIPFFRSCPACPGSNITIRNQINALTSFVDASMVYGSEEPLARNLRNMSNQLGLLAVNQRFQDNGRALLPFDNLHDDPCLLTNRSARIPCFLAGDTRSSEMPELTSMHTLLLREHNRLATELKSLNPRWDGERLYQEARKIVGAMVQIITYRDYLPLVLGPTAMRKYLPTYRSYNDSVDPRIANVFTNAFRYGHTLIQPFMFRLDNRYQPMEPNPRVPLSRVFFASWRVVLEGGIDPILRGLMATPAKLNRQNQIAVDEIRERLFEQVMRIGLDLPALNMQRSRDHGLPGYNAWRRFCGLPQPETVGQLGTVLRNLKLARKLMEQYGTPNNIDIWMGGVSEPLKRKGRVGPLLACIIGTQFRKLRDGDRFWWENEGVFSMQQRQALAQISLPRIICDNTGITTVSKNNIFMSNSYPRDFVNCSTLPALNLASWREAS
T1 sequence (P05164 165-273 limits assumed): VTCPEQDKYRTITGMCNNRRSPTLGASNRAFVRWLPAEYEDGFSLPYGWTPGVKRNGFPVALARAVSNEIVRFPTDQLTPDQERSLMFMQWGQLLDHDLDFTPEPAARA
Sequence of CYP3A (P08684 2-503): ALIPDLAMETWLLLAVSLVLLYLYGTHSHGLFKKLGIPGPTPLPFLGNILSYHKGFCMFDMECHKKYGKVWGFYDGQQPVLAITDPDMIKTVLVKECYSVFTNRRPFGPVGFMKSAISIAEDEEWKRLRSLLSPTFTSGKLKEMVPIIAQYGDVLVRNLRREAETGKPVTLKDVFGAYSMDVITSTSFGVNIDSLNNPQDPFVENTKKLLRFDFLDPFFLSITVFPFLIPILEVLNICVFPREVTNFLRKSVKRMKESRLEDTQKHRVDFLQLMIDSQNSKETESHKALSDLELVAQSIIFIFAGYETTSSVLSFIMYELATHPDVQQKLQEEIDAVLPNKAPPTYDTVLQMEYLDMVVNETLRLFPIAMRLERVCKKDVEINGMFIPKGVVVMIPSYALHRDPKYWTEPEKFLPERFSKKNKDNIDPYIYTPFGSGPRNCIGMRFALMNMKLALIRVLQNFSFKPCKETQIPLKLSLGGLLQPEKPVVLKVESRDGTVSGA

`N[C@@H]1CCOc2cccc(Cn3c(=S)[nH]c(=O)c4[nH]ccc43)c21` (single isomer, unassigned) [Compound 6A] gave an F [1] of 57.2%, an AUC(0-t) ([1]; iv, 1 mg/kg i.v) of 1270 ng·h/mL and a Cmax ([1]; iv, 1 mg/kg i.v) of 1.9 µg/mL. It also gave a clearance ([1]; iv, 1 mg/kg i.v) of 13 mL/min/kg, a half-life ([1]; iv, 1 mg/kg i.v) of 299 min and an AUC(0-t) ([1]; po, 5 mg/kg p.o) of 3630 ng·h/mL. The Cmax ([1]; po, 5 mg/kg p.o) was 1.7 µg/mL, the half-life ([1]; po, 5 mg/kg p.o) was 220 min and the “mRNA Relative positive induction percentage” value (CYP1A2) was −0.29%. For the same compound, the “mRNA Relative positive induction percentage” value (CYP3A4) was 2.10%, the IC50 [2] was 4.64 nM and the “mRNA Relative positive induction percentage” value (CYP2B6) was 1.68%. It also gave an IC50 at 10 min (CYP3A; [3]) of over 50 µM and an IC50 at 10 min (CYP3A; [4]) of 27.3 µM.

In the case of `N[C@@H]1CCCc2cccc(Cn3c(=S)[nH]c(=O)c4[nH]ccc43)c21` (single isomer, unassigned) [Compound 7A, 1-((8-amino-5,6,7,8-tetrahydronaphthalene-1-yl)methyl)-2-thio-1,2,3,5-tetrahydro-4H-pyrrolo[3,2-d]pyrimidin-4-one], the F [1] is reported as 83.3%, the AUC(0-t) ([1]; iv, 1 mg/kg i.v) is reported as 293 ng·h/mL and the Cmax ([1]; iv, 1 mg/kg i.v) is reported as 0.8 µg/mL. The clearance ([1]; iv, 1 mg/kg i.v) was 52.7 mL/min/kg, the half-life ([1]; iv, 1 mg/kg i.v) was 155 min and the AUC(0-t) ([1]; po, 5 mg/kg p.o) was 1220 ng·h/mL. For the same compound, the Cmax ([1]; po, 5 mg/kg p.o) was 0.5 µg/mL, the half-life ([1]; po, 5 mg/kg p.o) was 206 min and the “mRNA Relative positive induction percentage” value (CYP1A2) was 0.15%. The “mRNA Relative positive induction percentage” value (CYP3A4) was 7.93%, the IC50 [2] was 4.83 nM and the “mRNA Relative positive induction percentage” value (CYP2B6) was 8.41%. It also gave an IC50 at 10 min (CYP3A; [3]) of over 50 µM and an IC50 at 10 min (CYP3A; [4]) of 19.7 µM.

`N[C@@H]1CCCOc2cccc(Cn3c(=S)[nH]c(=O)c4[nH]ccc43)c21` (single isomer, unassigned) [Compound 15A, 1-((5-amino-2,3,4,5-tetrahydrobenzo[b]oxypyrimidin-6-yl)methyl)-2-thio-1,2,3,5-tetrahydroxy-4H-pyrrolo[3,2-d]pyrimidin-4-one] showed an IC50 [2] of 9.92 nM.

`NC1CCc2c(Cl)ccc(Cn3c(=S)[nH]c(=O)c4[nH]ccc43)c21` (stereo not drawn) [Compound 1, 1-((3-amino-7-chloro-2,3-dihydro-1H-inden-4-yl)methyl)-2-thio-1,2,3,5-tetrahydro-4H-pyrrolo[3,2-d]pyrimidin-4-one] showed an IC50 [2] of 51.6 nM.

Compound `NC1COc2c(Cl)ccc(Cn3c(=S)[nH]c(=O)c4[nH]ccc43)c21` (stereo not drawn) [Compound 2, 1-((3-amino-7-chloro-2,3-dihydrobenzofuran-4-yl)methyl)-2-thio-1,2,3,5-tetrahydro-4H-pyrrolo[3,2-d]pyrimidin-4-one] has an IC50 [2] of 33 nM.

`NC1COc2cccc(Cn3c(=S)[nH]c(=O)c4[nH]ccc43)c21` (stereo not drawn) [Compound 3] gave an IC50 [2] of 31 nM.

`NC1CCOc2c(Cl)ccc(Cn3c(=S)[nH]c(=O)c4[nH]ccc43)c21` (stereo not drawn) [Compound 5, 1-((4-amino-8-chlorochroman-5-yl)methyl)-2-thio-1,2,3,5-tetrahydro-4H-pyrrolo[3,2-d]pyrimidin-4-one] gave an IC50 [2] of 16.1 nM.

Compound `NC1CCOc2cccc(Cn3c(=S)[nH]c(=O)c4[nH]ccc43)c21` (stereo not drawn) [Compound 6, 1-((4-aminochroman-5-yl)methyl)-2-thio-1,2,3,5-tetrahydro-4H-pyrrolo[3,2-d]pyrimidin-4-one] has an F [1] of 48.6%, an AUC(0-t) ([1]; iv, 1 mg/kg i.v) of 827 ng·h/mL and a clearance ([1]; iv, 1 mg/kg i.v) of 19.9 mL/min/kg. The half-life ([1]; iv, 1 mg/kg i.v) was 202 min, the Cmax ([1]; iv, 1 mg/kg i.v, read-out: Cmax) was 0.62 µg/mL and the AUC(0-t) ([1]; po, 5 mg/kg p.o) was 2010 ng·h/mL. For the same compound, the half-life ([1]; po, 5 mg/kg p.o) was 308 min, the Cmax ([1]; po, 5 mg/kg p.o, read-out: Cmax) was 0.305 µg/mL and the IC50 [2] was 8.02 nM.

In the case of `NC1CCCc2cccc(Cn3c(=S)[nH]c(=O)c4[nH]ccc43)c21` (stereo not drawn) [Compound 7, 1-((8-amino-5,6,7,8-tetrahydronaphthalene-1-yl)methyl)-2-thio-1,2,3,5-tetrahydro-4H-pyrrolo[3,2-d]pyrimidin-4-one], the IC50 [2] is reported as 10.7 nM.

With `Cc1c[nH]c2c(=O)[nH]c(=S)n(Cc3cccc4c3C(N)CCO4)c12` (stereo not drawn) [Compound 16] the IC50 [2] was 19.6 nM.

With `COc1c[nH]c2c(=O)[nH]c(=S)n(Cc3cccc4c3C(N)CCO4)c12` (stereo not drawn) [Compound 17, 1-((4-aminochroman-5-yl)methyl)-7-methoxyl-2-thio-1,2,3,5-tetrahydro-4H-pyrrolo[3,2-d]pyrimidin-4-one] the IC50 [2] was 23.4 nM.
